Data published in US11649235B2, “Pan-tropic entry inhibitors” (Emory University, priority 2018, dated 2023).
Like-named read-outs stand apart in the source and are kept apart here.

Assays:
[1] = system: MAGI; assay: Cytotoxicity in MAGI HIV-1IIIB assay; type: cell-based
Experimental: (§1) HIV-1 and MAGI Tropism assays can be used to establish activity/cytotoxicity and synergy studies and ADME profiles of compounds are evaluated using in vitro assays such as CYP2D6/3A4 assays and metabolic stability in human and mouse liver microsomes (See Tables 2 and 3).

[2] = system: HIV-1BaL; assay: HIV MAGI assay, HIV-1BaL; type: cell-based; settings: for IC50 / IC90: Table 3
Experimental: as §1

[3] = system: HIV-1IIIB; assay: HIV MAGI assay, HIV-1IIIB; type: cell-based; settings: for IC50 / IC90: Table 3
Experimental: as §1

[4] = system: MAGI; assay: Cytotoxicity in MAGI HIV-1BaL assay; type: cell-based
Experimental: as §1

[5] = molecular target: CYP2D6 (Homo sapiens (Human), UniProt P10635); assay: Recombinant CYP inhibition assay (fluorometric), CYP2D6; type: in vitro ADME
Chain of CYP2D6 (P10635 whole entry): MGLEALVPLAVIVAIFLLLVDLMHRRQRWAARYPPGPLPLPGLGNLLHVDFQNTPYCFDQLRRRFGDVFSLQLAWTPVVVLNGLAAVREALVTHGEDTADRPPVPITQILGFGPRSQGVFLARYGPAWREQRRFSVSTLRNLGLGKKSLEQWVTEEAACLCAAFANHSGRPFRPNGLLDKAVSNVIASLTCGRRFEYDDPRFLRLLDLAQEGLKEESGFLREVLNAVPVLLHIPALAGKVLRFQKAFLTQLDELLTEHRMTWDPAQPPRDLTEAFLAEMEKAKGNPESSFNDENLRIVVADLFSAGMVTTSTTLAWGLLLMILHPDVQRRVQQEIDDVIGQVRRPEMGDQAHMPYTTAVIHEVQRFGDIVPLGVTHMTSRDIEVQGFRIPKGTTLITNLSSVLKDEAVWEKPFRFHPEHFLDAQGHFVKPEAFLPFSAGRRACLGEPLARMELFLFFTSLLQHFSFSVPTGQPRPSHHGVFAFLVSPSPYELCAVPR
Text: (§2) Recombinant CYP Inhibition Assay: In a drug discovery program, a rapid screening for cyctochrome P450 (CYP450) inhibitors is a part of the existing standard for avoiding the development of drugs likely to give clinical pharmacokinetic drug-drug interactions and associated toxicities. A microtiter plate-based, direct fluorometric assay for the activities of the principal human drug-metabolizing enzymes, CYP2D6 and CYP3A4 can be used and these assays are rapid and compatible with existing high-throughput assay instrumentation.
(§3) Fluorometric Enzyme Inhibition Assays: Test compounds were dissolved in 100% organic solvent (CH3CN or DMSO) to make 30 mM stock solutions. […] A 100 mM potassium phosphate buffer was prepared and adjusted to pH 7.4. The 30 mM stock solution of test and control compounds (1 mM) were further diluted in phosphate buffer (100 mM, pH 7.4) to ensure the final organic solvent content was <0.2% in the reaction. In a separate falcon tube, a 2× enzyme/substrate (E/S) solution was prepared in phosphate buffer. The final concentration of CYP2D6 (Corning) and AMMC was 10 nM and 4 μM, and CYP3A4 (Corning) and BFC was 20 nM and 40 μM, respectively. In a separate falcon tube, a 2× NADPH regenerating system (NRS) was prepared in phosphate buffer. The final concentration for each component in the assay was as follows: • CYP2D6 assay=0.008 mM NADPH, 3.3 mM glucose 6-phosphate, 0.4 U of glucose-6-phosphate dehydrogenase/mL • CYP3A4 assay=2.45 mM NADPH, 24.7 mM glucose 6-phosphate, 1.25 U of glucose-6-phosphate dehydrogenase/mL
(§4) Both enzymatic assays were conducted in a 96-well microtiter plate (Black, Corning Costar) with a final volume of 100 μL. Preparation of the plate began with the addition of 74 μL of the E/S in the first well, and 50 μL to all subsequent wells (from 2-11). The test compounds (1 μL) were dissolved in the first well to give the first row a final volume of 75 μL. A 1:3 serial dilution of the test compound was conducted by removing 25 μL from the first well and diluting it with the second and so forth until the tenth row. Final concentrations yielded a range from 300 μM-0.01 μM. Well 11 contained no enzyme, and well 12 contained no inhibitor. Both were used as controls for background fluorescence. The plate was incubated for 10 min at 37° C. for CYP2D6, and 30 mins for CYP3A4. After incubation, the reaction was initiated by the addition of 50 μL of the 2× NRS to each well.
(§5) Immediately (within 1 min) the fluorescence was measured using a microplate reader (KC4, BioTek). CYP2D6 was monitored at Ex/Em=410/460 nm, and CYP3A4 monitored at Ex/Em=410/538 nm in kinetic mode that scanned every 5 min for 60 mins. Data was exported and corrected for background noise by subtracting the blank from the mean value of all other columns. […]

[6] = molecular target: CYP3A4 (Homo sapiens (Human), UniProt P08684); assay: Recombinant CYP inhibition assay (fluorometric), CYP3A4; type: in vitro ADME
Chain of CYP3A4 (P08684 whole entry): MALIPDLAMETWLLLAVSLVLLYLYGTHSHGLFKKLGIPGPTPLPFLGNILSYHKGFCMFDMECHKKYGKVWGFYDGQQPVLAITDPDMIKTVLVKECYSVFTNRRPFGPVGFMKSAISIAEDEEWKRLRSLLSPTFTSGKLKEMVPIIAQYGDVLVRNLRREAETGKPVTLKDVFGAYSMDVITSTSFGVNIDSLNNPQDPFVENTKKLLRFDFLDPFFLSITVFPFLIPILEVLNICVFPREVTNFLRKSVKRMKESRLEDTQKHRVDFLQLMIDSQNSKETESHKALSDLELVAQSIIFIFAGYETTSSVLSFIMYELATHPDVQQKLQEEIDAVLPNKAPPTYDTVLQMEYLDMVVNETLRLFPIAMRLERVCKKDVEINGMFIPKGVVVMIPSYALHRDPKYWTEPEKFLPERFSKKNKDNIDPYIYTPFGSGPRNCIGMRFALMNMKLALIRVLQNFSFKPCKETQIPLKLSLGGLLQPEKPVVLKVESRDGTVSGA
Text: as §2, §3, §4, §5

[7] = Mouse liver microsomes assay; type: in vitro ADME; settings: for Relative % remaining, mouse liver microsomes: 3 μM compound, 1 mg/mL microsomes
Experimental: Controls were processed and analyzed like test compounds. […] The relative percent remaining was calculated using: Relative % remaining=[…]=0*100. […] Metabolism data averaged duplicates.

[8] = both, 3 μM, pH 7.4
Experimental: Human Liver Microsomes: Pooled mixed gender human liver microsomes at a concentration of 20 mg/mL were purchased from XenoTech (Kansas City, Kans.). The vials of microsomes were stored at −80° C. and thawed on ice before each experiment. The microsomes were diluted to 1 mg/mL with 100 mM potassium phosphate buffer (pH 7.4).
Experimental Conditions: Test compounds were weighed and dissolved in 100% acetonitrile to make 2 mM stock solutions. […] The 2 mM stock solution of test and control compounds were further diluted in sodium phosphate buffer (100 mM, pH 7.4) to 50 μM to ensure the acetonitrile content was <0.2%.
The liver microsome assay was prepared in a 1.5 mL Eppendorf tube (Fisher Scientific) with a final volume of 1100 μL. Each reaction contained sodium phosphate buffer, liver microsomes (1 mg/mL), and test compound resulting in a final concentration of 3 μM. Following a 5 min pre-incubation of drug and microsomes in a 37° C. shaking incubator, the reaction was initiated with NADPH (110 μL). Aliquots (100 μL) were removed in duplicate at 0, 5, 10, 15, and […] and quenched in cold acetonitrile (200 μL). The aliquots were centrifuged at 12,000 g for 5 min and the supernatant removed and placed in an LCMS vial. […] A no NADPH negative control with test and control compound was conducted in singlet (150 μL) at the longest time point. Controls were processed and analyzed like test compounds.
An Agilent Technologies LCMS system consisting of an Agilent 6120 quadrupole mass spectrometer equipped with an Agilent 1200 binary pump, degasser, and auto sampler (Santa Clara, Calif.). The analytical column used for analysis was an XDB-Eclipse Plus C18 column (4.6 mm×150 mm column; Agilent Technologies). The mobile phase for the HPLC was 50 mM ammonium formate buffer, pH 3.5 (A) and acetonitrile (B). The samples were analyzed using the following 8-minute method: A linear gradient from 10% B to 95% B over for 5 minutes, with a 3 min hold at 95%. An equilibration at 10% B for 5 min was conducted after each run. Sample injection volume was 10 μL and the flow rate was 1.0 mL/min. Single ion monitoring of the mass in positive mode was conducted the molecular weight for each compound. Each time point was assessed on the LCMS and the area, based on the extracted ion, was manually integrated.
Calculations: The depletion of the compound was monitored as a function of time, and the area under the curve was manually integrated. The relative percent remaining was calculated using: Relative % remaining=AreaTime/AreaTime=0*100. The relative percentages for the duplicate runs were averaged and the standard deviations were calculated. Metabolism data averaged duplicates.

[9] = Human immunodeficiency virus 1, MAGI

Structure (SMILES)	MAGI HIV-1IIIB TC50 ([1]; Table 3) [µM]	IC50 [2, 9] [µM]	IC90 [2, 9] [µM]	IC50 [3, 9] [µM]	IC90 [3, 9] [µM]	MAGI HIV-1BaL TC90 ([4]; Table 3, head prints TC90) [µM]	other results
NCCCCN(CC1NC[C@@H]2CC[C@H]1N2CC[C@H](NC(=O)C1CCC(F)(F)CC1)c1ccccc1)[C@H]1CCCc2cccnc21 (single isomer, unassigned) [LRf isomer 95]	–	–	–	–	–	–	MAGI HIV-1IIIB TC50 ([1]; human): >10.0 µM; IC50 [2]: 9.36 µM; IC90 [2]: > 100 µM; IC50 [3]: > 10 µM; IC90 [3]: > 10 µM; MAGI HIV-1BaL TC90 ([4]; human): >100 µM
NCCCCN(CC1NC[C@@H]2CC[C@H]1N2CC[C@H](NC(=O)C1CCC(F)(F)CC1)c1ccccc1)[C@H]1CCCc2cccnc21 (single isomer, unassigned) [URf isomer 95]	–	–	–	–	–	–	MAGI HIV-1IIIB TC50 ([1]; human): >10.0 µM; IC50 [2]: 0.82 µM; IC90 [2]: 8.96 µM; IC50 [3]: 0.17 µM; IC90 [3]: 0.9 µM; MAGI HIV-1BaL TC90 ([4]; human): >100 µM
NCCCCN(Cc1nc2ccccc2[nH]1)[C@H]1CCCc2cccnc21 [AMD11070, reference compound]	–	–	–	–	–	–	inhibition at 60 min, 1 µM ([5]; human, recombinant CYP2D6, pH 7.4, probe AMMC (4 μM), at 1 μM, read-out: Inhibition of P450 2D6): 100%; Inhibition of P450 3A4 ([6]; at 1 μM): 35%
NCCCCN(C[C@@H]1CN(CC[C@H](NC(=O)C2CCC(F)(F)CC2)c2ccccc2)CCN1)[C@H]1CCCc2cccnc21 [Compound 1]	–	–	–	–	–	–	EC50 ([2]; Human immunodeficiency virus 1, MAGI, Table 1, read-out: HIV MAGI EC50 HIVBa-L): 2.6 µM; IC50 ([5]; Table 1): > 20 µM; EC50 ([3]; Human immunodeficiency virus 1, MAGI, Table 1, read-out: HIV MAGI EC50 HIVIIIB): 0.22 µM; Relative % remaining, mouse liver microsomes ([7]; 10 min): 116 ± 3.1%; Relative % remaining, mouse liver microsomes ([7]; 30 min): 93 ± 8.9%; MLM ([7]; @ 10 min, Table 1): 100% @ 10 min; IC50 ([6]; Table 1): > 20 µM; Relative % remaining, human liver microsomes ([8]; 10 min): 58 ± 4.9%; Relative % remaining, human liver microsomes ([8]; 0.5 h): 25 ± 0.1%; HLM ([8]; human, microsomes, 10 min): 58% @ 10 min
NCCCCN(C[C@H]1CN(CC[C@H](NC(=O)C2CCC(F)(F)CC2)c2ccccc2)CCN1Cc1cncs1)[C@H]1CCCc2cccnc21 [Compound 66]	>100	0.33	4.38	12.4	65.8	>100	–
NCCCCN(C[C@H]1CN(CC[C@H](NC(=O)C2CCC(F)(F)CC2)c2ccccc2)CCN1Cc1cnco1)[C@H]1CCCc2cccnc21 [Compound 67]	>100	2.33	36.7	3.19	44.6	>100	–
CN1CCN(CC[C@H](NC(=O)C2CCC(F)(F)CC2)c2ccccc2)C[C@@H]1CN(CCCCN)[C@H]1CCCc2cccnc21 [Compound 68]	>100	4.16	66.8	10.2	70.2	>100	–
NCCCCN(C[C@H]1CN(CC[C@H](NC(=O)C2CCC(F)(F)CC2)c2ccccc2)CCN1CC1COC1)[C@H]1CCCc2cccnc21 [Compound 75, N—((S)-3-((R)-3-(((4-aminobutyl)((S)-5,6,7,8-tetrahydroquinolin-8-yl)amino)methyl)-4-(oxetan-3-ylmethyl)piperazin-1-yl)-1-phenylpropyl)-4,4-difluorocyclohexane-1-carboxamide]	>100	2.51	97.1	6.61	68.5	>100	–
NCCCCN(C[C@H]1CN(CC[C@H](NC(=O)C2CCC(F)(F)CC2)c2ccccc2)CCN1Cc1cnc[nH]1)[C@H]1CCCc2cccnc21 [Compound 77, N—((S)-3-((R)-4-((1H-imidazol-5-yl)methyl)-3-(((4-aminobutyl)((S)-5,6,7,8-tetrahydroquinolin-8-yl)amino)methyl)piperazin-1-yl)-1-phenylpropyl)-4,4-difluorocyclohexane-1-carboxamide]	>100	1.54	23	0.002	0.009	>100	–
Cn1cncc1CN1CCN(CC[C@H](NC(=O)C2CCC(F)(F)CC2)c2ccccc2)C[C@@H]1CN(CCCCN)[C@H]1CCCc2cccnc21 [Compound 79, N—((S)-3-((R)-3-(((4-aminobutyl)((S)-5,6,7,8-tetrahydroquinolin-8-yl)amino)methyl)-4-((1-methyl-1H-imidazol-5-yl)methyl)piperazin-1-yl)-1-phenylpropyl)-4,4-difluorocyclohexane-1-carboxamide]	>100	0.66	7.35	2.58	36.5	>100	–
NCCCCN(C[C@H]1CN(CC[C@H](NC(=O)C2CCC(F)(F)CC2)c2ccccc2)CCN1Cc1ccncc1)[C@H]1CCCc2cccnc21 [Compound 81, N—((S)-3-((R)-3-(((4-aminobutyl)((S)-5,6,7,8-tetrahydroquinolin-8-yl)amino)methyl)-4-(pyridin-4-ylmethyl)piperazin-1-yl)-1-phenylpropyl)-4,4-difluorocyclohexane-1-carboxamide]	>100	0.95	22.7	3.49	52.7	>100	–
